≈ marks a conversion by molar mass, not a printed value. Where “and” joins values, the source holds several entries; their conditions need not be identical. Equal values may be shown once. Read-outs that look alike come from different tables or passages of the source.
Assays:
[1] = molecular target: T1, human macrodomain Targ1 (Homo sapiens, UniProt Q9Y530); assay: HTRF peptide displacement assay, Targ1; type: binding
T1 sequence (Q9Y530 with tags, fused parts or gaps): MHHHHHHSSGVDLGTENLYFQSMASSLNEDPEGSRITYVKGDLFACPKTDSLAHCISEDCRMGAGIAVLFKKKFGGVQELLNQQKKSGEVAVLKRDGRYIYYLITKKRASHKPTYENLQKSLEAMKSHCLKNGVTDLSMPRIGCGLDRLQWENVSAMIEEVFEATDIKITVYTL

[2] = in vitro; conditions: human; for Papp A→B at 1 h / Papp B→A at 1 h: Caco-2
Procedure: (§1) Caco-2 cell plates were obtained commercially and were maintained for 21 days at 37°C with 5% CO2. Cells were washed with Hank’s Balanced Salt Solution (HBSS) with 5 mM HEPES for 30 minutes before starting the experiment. Test compound solutions are prepared by diluting DMSO stock into HBSS buffer, resulting in a final DMSO concentration of 0.1%. Prior to the assay, cell monolayer integrity was verified by […] electrical resistance (TEER) to ensure that wells have resistance above the acceptance cut-off (1 kΩ). Transport experiments were initiated by adding test compounds to the apical (75 μl) or basal (250 μl) side. Transport plates were incubated at 37°C in a humidified incubator with 5% CO2. Samples were taken from the donor and acceptor compartments after one hour and analyzed by liquid chromatography with tandem mass spectrometry (LC/MS/MS) using an AB Sciex API 4000 instrument, coupled to a Shimadzu LC-20AD LC Pump system. Samples were separated using a Waters Atlantis T3 dC18 reverse phase HPLC column (20 mm × 2.1 mm) at a flow rate of 0.5 ml/min. The mobile phase consisted of 0.1% formic acid in acetonitrile (solvent A) and 0.1% formic acid in water (solvent B).
(§2) Apparent permeability (Papp) values were calculated using the following equation: Papp=(dQ/dt)/A/C0 where dQ/dt is the initial rate of compound transport across the cell monolayer, A is the surface area of the filter membrane, and C0 is the initial concentration of the test compound, calculated for each direction using a four-point calibration curve by LC/MS/MS.
(§3) Net flux ratio between the two directional transports was calculated by the following equation: Ratio=PappB-A/PappA-B where PappB-A and PappA-B represent the apparent permeability of compounds from the basal-to-apical and apical-to-basal side of the cellular monolayer, respectively. Recovery was calculated based on the compound concentration at the end of the experiment, compared to that at the beginning of the experiment, adjusted for volumes.

[3] = tested on: Caco-2 cells; assay: in vitro
Procedure: as §1, §2, §3

[4] = Microsomal stability; type: in vitro ADME, mouse; conditions: for half-life at 1 µM / microsomal CLint at 1 µM: pH 7.4
Procedure: The assay was carried out in 96-well plates at 37°C. Reaction mixtures (25 μl) contained a final concentration of 1 μM compound, 0.5 mg/ml liver microsomes protein, and 1 mM NADPH and/or 1 mM UDPGA (with alamethicin) in 100 mM potassium phosphate (pH 7.4) with 3 mM MgCl2. After 0, 15, 30, and 60 minutes, 150 μl of quench solution (100% acetonitrile with 0.1% formic acid) with internal standard was transferred to each well. Reactions containing the same components except the NADPH were prepared as the negative control. Plates were sealed, vortexed, and centrifuged at 4°C for 15 minutes at 4000 rpm.
The extent of metabolism was calculated as the disappearance of compounds, compared to the 0-min time incubation.

[5] = Kinetic solubility; conditions: pH 7.4, aqueous buffer, kinetic from dmso stock
[6] = molecular target: T2, human macrodomain MacroD2 (Homo sapiens, UniProt A1Z1Q3); assay: HTRF peptide displacement assay, MacroD2; type: binding
T2 sequence (A1Z1Q3 with tags, fused parts or gaps): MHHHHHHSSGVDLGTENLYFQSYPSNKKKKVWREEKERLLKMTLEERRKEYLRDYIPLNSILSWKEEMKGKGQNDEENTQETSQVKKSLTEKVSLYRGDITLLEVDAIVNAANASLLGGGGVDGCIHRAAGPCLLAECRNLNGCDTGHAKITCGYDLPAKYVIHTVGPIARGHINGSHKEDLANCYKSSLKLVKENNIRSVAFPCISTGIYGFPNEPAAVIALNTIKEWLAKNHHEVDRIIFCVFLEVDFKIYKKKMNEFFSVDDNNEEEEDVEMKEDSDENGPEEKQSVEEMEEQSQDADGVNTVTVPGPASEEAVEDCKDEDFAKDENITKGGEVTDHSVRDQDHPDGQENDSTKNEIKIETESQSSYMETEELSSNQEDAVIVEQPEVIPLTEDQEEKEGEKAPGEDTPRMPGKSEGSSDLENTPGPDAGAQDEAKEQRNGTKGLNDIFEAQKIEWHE

[7] = molecular target: SARS-CoV-2 NSP3 macrodomain (Mac1) (Severe acute respiratory syndrome coronavirus 2, UniProt P0DTD1); assay: biochemical; type: binding; conditions: for Hill slope: HTRF dose-response fit, Mac1; for SARS CoV-2 macrodomain HTRF assay: Hillslope: dose-response fit
[8] = molecular target: SARS-CoV-2 NSP3 macrodomain (Mac1), P43 crystal form (Severe acute respiratory syndrome coronavirus 2, UniProt P0DTD1); type: binding; conditions: for PanDDA run, DMSO background map: 1-BDC: event 1; for 1-BDC: PanDDA background density correction; for Total number of conformations: ligand conformations modeled in Mac1 crystal structure; for 2*(1-BDC) (%): occupancy estimate from PanDDA BDC; for X-ray crystallography: Binding site: site where the ligand is bound in the X-ray crystal structure
[9] = Caco-2, Caco-2 ratio B-A/A-B, net flux ratio
[10] = Caco-2, compound concentration 5
[11] = mouse, microsomes, 1 μM compound, 0.5 mg/ml microsomal protein, read-out: Mouse microsome T1/2
[12] = mouse microsomes, read-out: CLint (mouse)

Row | Compound | Papp A→B at 1 h [2] | Papp B→A at 1 h [2] | Hill slope [7] | SARS CoV-2 macrodomain HTRF assay: Hillslope [7] | Occupancy difference (refined_occupancy - 2*(1-BDC)) [8] | Refined ligand occupancy (%) [8] | PanDDA run, DMSO background map: 1-BDC [8] | 1-BDC [8] | Total number of conformations [8] | 2*(1-BDC) (%) [8] | X-ray crystallography: Binding site [8] | also measured
1 | Nc1ncnc2c1ncn2[C@@H]1O[C@H](COP(=O)(O)OP(=O)(O)OC[C@H]2O[C@@H](O)[C@H](O)[C@@H]2O)[C@@H](O)[C@H]1O.[Na].[Na] [ADP-ribose, reference compound] | – | – | – | – | – | – | – | – | – | – | – | Hill slope ([1]; HTRF dose-response fit, Targ1): 1.5
2 | O=C(Nc1ccc(C(=O)N[C@H]2c3cccc(O)c3C[C@H]2C(=O)O)cc1)NC1CC1 [AVI-92, reference compound] | 0.04 ×10⁻⁶ cm/s | 1.7 ×10⁻⁶ cm/s | – | – | – | – | – | – | – | – | – | efflux ratio at 1 h [2, 9]: 40.7; efflux ratio at 1 h ([2]; Caco-2, Ratio (B-A/A-B), Caco-2, compound concentration 5): 42.5; Recover Rate (%) [3, 10]: 91%; CLint (mouse) (µl/min/mg protein), mean ([4]; mouse microsome stability): <11.6 µl/min/mg protein; T1/2 (min), mean ([4]; mouse microsome stability): >120 min; half-life at 1 µM [4, 11]: > 120 min; microsomal CLint at 1 µM [4, 12]: < 11.6 µL/min/mg; solubility kinetic at […] [5]: 524 µM (≈ 207 µg/mL)
3 | O=C1CCCN1Nc1ncnc2[nH]c3cc(F)ccc3c12 [AVI-219, reference compound] | 10.6 ×10⁻⁶ cm/s | 16.8 ×10⁻⁶ cm/s | – | – | – | – | – | – | – | – | – | efflux ratio at 1 h [2, 9]: 1.6; Recover Rate (%) [3, 10]: 98%; microsomal CLint at 1 µM ([4]; liver microsomes, mouse microsome stability, read-out: CLint (mouse) (µl/min/mg protein), mean): 53.1 µL/min/mg; half-life at 1 µM ([4]; liver microsomes, mouse microsome stability, read-out: T1/2 (min), mean): 26.1 min; microsomal CLint at 1 µM ([4]; mouse, microsomes): 53.1 µL/min/mg; solubility kinetic at […] ([5]; phosphate buffered saline): 127 µM (≈ 36.2 µg/mL)
4 | CC(C)[C@H](CO)Nc1ncnc2[nH]ccc12 [AVI-1504, (2R)-3-Methyl-2-({7H-pyrrolo[2,3-d]pyrimidin-4-yl}amino)butan-1-ol] | – | – | – | – | – | – | – | – | – | – | – | CLint (mouse) (µl/min/mg protein), mean ([4]; mouse microsome stability): <11.6 µl/min/mg protein
5 | C[C@H]1CCCN(c2ncnc3[nH]ccc23)[C@H]1CO [AVI-3716] | 25.9 ×10⁻⁶ cm/s | 18.9 ×10⁻⁶ cm/s | – | – | – | – | – | – | – | – | – | IC50 ([6]; dose-response, read-out: Human MacroD2 HTRF assay: IC50): > 1000 µM; binding to the human macrodomain MacroD2 ([6]; in words): none; IC50 ([1]; dose-response, read-out: Human Targ1 HTRF assay: IC50): > 1000 µM; binding to the human macrodomain Targ1 ([1]; in words): none; Recover Rate (%) [3, 10]: 104%; microsomal CLint at 1 µM ([4]; liver microsomes, mouse microsomes, read-out: CLint (mouse) (µl/min/mg protein), mean): 44.4 µL/min/mg; Mouse microsome stability: T1/2 (min), mean ([4]; mouse microsomes): 31.2 min; microsomal CLint at 1 µM ([4]; mouse, microsomes): 44.4 µL/min/mg; half-life at 1 µM [4, 11]: 31.2 min; solubility kinetic at […] ([5]; phosphate buffered saline): 523 µM (≈ 129 µg/mL)
6 | Cc1c[nH]c2ncnc(NCC3(O)CCCCC3)c12 [AVI-3761, 1-(((5-methyl-7H-pyrrolo[2,3-d]pyrimidin-4-yl)amino)methyl)cyclohexan-1-ol] | 21.5 ×10⁻⁶ cm/s | 11.2 ×10⁻⁶ cm/s | – | – | – | – | – | – | – | – | – | IC50 [6]: > 1000 µM; binding to the human macrodomain MacroD2 [6]: none; IC50 [1]: > 1000 µM; binding to the human macrodomain Targ1 [1]: none; Recover Rate (%) ([3]; human, Caco-2, 1 h): 86%; T1/2 (min), mean ([4]; mouse microsome stability): 7.49 min; half-life at 1 µM [4, 11]: 7.49 min; microsomal CLint at 1 µM [4, 12]: 185 µL/min/mg
7 | CC1(C)CCN(c2ncnc3[nH]ccc23)C(CO)C1 (stereo not drawn) [AVI-5994] | – | – | 1.2 | 1.2 | 0 | 46% | 0.23 and 0.27 | 0.23 | 2 | 46% | Adenosine | Comment ([8]; comment on ligand modeling / Phe132 loop density): Weak density for open state of Phe132 loop
8 | O[C@H]1CC[C@H]2CCN(c3ncnc4[nH]ccc34)[C@H]21 [AVI-5997] | – | – | 1.2 | 1.2 | 12 | 70% | 0.28 and 0.29 | 0.29 | 1 | 58% | Adenosine | –
9 | OCC1C=CCCN1c1ncnc2[nH]ccc12 (stereo not drawn) [AVI-5998] | – | – | 1.2 | 1.2 | 0 | 38% | 0.21 and 0.19 | 0.19 | 1 | 38% | Adenosine | –
10 | CC(C)(C)C1CCCN1c1ncnc2[nH]ccc12 (stereo not drawn) [AVI-6000] | – | – | – | – | 0 | 14% | 0.07 | 0.07 | 1 | 14% | Adenosine | IC50 ([7]; dose-response, read-out: SARS CoV-2 macrodomain HTRF assay: IC50): > 1000 µM
11 | OCC1CC=CCN1c1ncnc2[nH]ccc12 (stereo not drawn) [AVI-6002] | – | – | 1.3 | 1.3 | 18 | 50% | 0.21 and 0.16 | 0.16 | 1 | 32% | Adenosine | –
12 | OC1(CNc2ncnc3[nH]ccc23)CCCCC1 [AVI-6217] | – | – | 1.1 | 1.1 | 16 | 60% | 0.22 | 0.22 | 1 | 44% | Adenosine | –
13 | OC1CCC(O)(CNc2ncnc3[nH]ccc23)CC1 (stereo not drawn) [AVI-6220] | – | – | 1.3 | 1.3 | 0 | 14% | 0.07 | 0.07 | 2 | 14% | Adenosine | –

Source: publication doi:10.1101/2024.08.25.609621 (bioRxiv, 2024)
